According to patent publication US20070212716A1, “Nezara viridula Ecdysone Receptor” (Commonwealth Scientific & Industrial Research Org., priority 2006, published 2007):

T1: FLAG-tagged NvUSPDEF (DEF domains / ligand binding region of Nezara viridula ultraspiracle protein) (Nezara viridula)
T1 construct: Co-expressed with His6-EcRDEF (isoform 10 or 11) in Sf9 cells; also called FLAG USPDEF; FLAG USPDEF5.1
T1 chain: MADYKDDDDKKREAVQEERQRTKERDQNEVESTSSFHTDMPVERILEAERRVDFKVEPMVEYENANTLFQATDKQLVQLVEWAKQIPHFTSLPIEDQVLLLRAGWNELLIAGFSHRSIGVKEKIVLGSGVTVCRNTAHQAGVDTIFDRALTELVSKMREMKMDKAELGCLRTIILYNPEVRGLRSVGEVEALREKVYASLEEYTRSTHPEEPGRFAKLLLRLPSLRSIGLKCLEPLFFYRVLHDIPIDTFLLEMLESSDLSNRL

B1: (His)6-tagged NvEcR10DEF (DEF domains / ligand binding region of Nezara viridula ecdysone receptor protein isoform NvEcR10) (receptor)
chain: MGMRGSHHHHHHRPECVVPEYQCAVKRKEKKAQKDKDKPVSTTNGSPESIKVEEPHRVVYKTEGETLGRPVPINGVKPVSPEQEELIHRLVYFQNEYEHPSEEDLRRIVSNTPNEDEEQSDQRFRHLTEITILTVQLIVEFAKRLPGFDKLLREDQIALLKACSSEVMMLRMARKYDATTDSILFANNQPYNRESYSLAGMGDVIEDLLRFCRHMFNMKVDNAEYALLTAIVIFSERPALIEGWKVEKIQEIYLEALKSYVDNRSRPRSPTIFAKLLSVLTELRTLGNQNSEMCFSLKLQNKKLPPFLAEIWDVNT
notes: Co-expressed with FLAG-NvUSPDEF in Sf9 cells from one baculovirus; also called His6EcRDEF10.1; EcRDEF
B2: (His)6-tagged NvEcR11DEF (DEF domains / ligand binding region of Nezara viridula ecdysone receptor protein isoform NvEcR11) (receptor)
chain: MGMRGSHHHHHHRPECVVPEYQCAVKRKEKKAQKDKDKPVSTTNGSPESIKVEEPHRVVYKTEGETLGRPVPINGVKPVSPEQEELIHRLVYFQNEYEHPSEEDLRRINTPNEDEEQSDQRFRHLTEITILTVQLIVEFAKRLPGFDKLLREDQIALLKACSSEVMMLRMARKYDATTDSILFANNQPYNRESYSLAGMGDVIEDLLRFCRHMFNMKVDNAEYALLTAIVIFSERPALIEGWKVEKIQEIYLEALKSYVDNRSRPRSPTIFAKLLSVLTELRTLGNQNSEMCFSLKLQNKKLPPFLAEIWDVNT
notes: Co-expressed with FLAG-NvUSPDEF in Sf9 cells from one baculovirus; also called His6EcRDEF11.1; EcRDEF

Legend:
NvEcR11DEF-NvUSPDEF = NvEcR11DEF-NvUSPDEF (Nezara viridula, UniProt E5L6Y2); assay: Competition binding with [3H]ponasterone A, NvEcR11DEF-NvUSPDEF; conditions: for Ki: calculated from IC50 with the Cheng-Prusoff equation; for IC50: competition with 1.3 nM bindable [3H]ponasterone A
Method: (§1) Ligand binding was measured by a [^3H]ponasterone A binding assay which involved trapping of [^3H]ponasterone A-receptor protein complex on glass fibre discs and washing away unbound steroid before scintillation counting in a Packard Tri-carb scintillation analyser. All such assays, unless otherwise stated, were conducted at the same concentration of bindable [^3H]ponasterone A (2.2 nM, after correcting for the fraction of radioactive material that could never be bound no matter how much receptor was added). Binding by the receptor was expressed in terms of arbitrary units (U) that, in the linear range of the assay (i.e. up to 30 000 cpm bound per filter), were directly proportional to filter-bound cpm. Historically, IU was defined as the amount of [^3H]ponasterone A binding conveyed by a fixed volume of a specific receptor preparation. Differences in the assay over time were corrected for empirically by re-assaying the reference receptor preparation with each new batch of [^3H]ponasterone A and calculating a batch-specific adjustment that was incorporated into the numerical factor used to convert filter-bound cpm into ligand binding units. On average, 1 pmol of receptor-bound [^3H]ponasterone A corresponds to approximately 15.2 U. Specific activity values (U/μg protein) can be calculated for different preparations of purified receptor and these reflect the purity of the preparation, the proportion of receptor that is functional, and the Kd value for that particular receptor.
(§2) Increasing concentrations of, ponasterone A, muristerone A, 20-hydroxyecdysone, inokosterone, and α-ecdysone (2β, 3β, 14α,22R, 25-pentahydroxy-5β-cholest-7-ene-6-one) were used to study the ability to compete with a 1.3 nM bindable concentration of [^3H] ponasterone A for binding to the Nv recombinant heterodimers NvEcR10DEF−NvUSPDEF and NvEcR11DEF−NvUSPDEF. IC50 values were obtained from smooth curves drawn through the data points (see FIG. 6), and from these Ki values were calculated using the Cheng-Prusoff equation (Cheng et at, 1973).

NvEcR10DEF-NvUSPDEF = NvEcR10DEF-NvUSPDEF (Nezara viridula, UniProt E5L6Y1); assay: Competition binding with [3H]ponasterone A, NvEcR10DEF-NvUSPDEF; conditions: for Ki: calculated from IC50 with the Cheng-Prusoff equation; for IC50: competition with 1.3 nM bindable [3H]ponasterone A
Method: as §1, §2

[1] = system: NvEcR11DEF-NvUSPDEF recombinant ecdysone receptor ligand binding region heterodimer; assay: [3H]ponasterone A filter binding assay / equilibrium binding, NvEcR11DEF-NvUSPDEF; design: species or system Nezara viridula
Method: (§3) Ponasterone A binding data used in Kd determination for the purified recombinant heterodimers NvEcR10DEF−NvUSPDEF and NvEcR11DEF−NvUSPDEF (Kd curves). Rt=concentration of active receptor. L=free [^3H] Ponasterone A. All values in tables are given in pM.
as §1, with “Historically, IU was defined as the amount of [^3H]ponasterone A binding conveyed by a fixed volume of a specific receptor preparation. Differences in the assay over time were corrected for empirically by re-assaying the reference receptor preparation with each new batch of [^3H]ponasterone A and calculating a batch-specific adjustment that was incorporated into the numerical factor used to convert filter-bound cpm into ligand binding units.” left out, “receptor. […]” for “receptor.”

[2] = target: ecdysone receptor recombinant ligand binding domains (DEF regions) heterodimer; assay: [3H]ponasterone A binding, Myzus persicae recombinant ligand binding region heterodimer; conditions: IMAC-purified Myzus persicae heterodimer; previously studied by this group
Method: as §1, with “Differences in the assay over time were corrected for empirically by re-assaying the reference receptor preparation with each new batch of [^3H]ponasterone A and calculating a batch-specific adjustment that was incorporated into the numerical factor used to convert filter-bound cpm into ligand binding units.” left out, “receptor. […]” for “receptor.”

[3] = system: NvEcR10DEF-NvUSPDEF recombinant ecdysone receptor ligand binding region heterodimer; assay: [3H]ponasterone A filter binding assay / equilibrium binding, NvEcR10DEF-NvUSPDEF; design: species or system Nezara viridula
Method: as §3
as §1, with “Historically, IU was defined as the amount of [^3H]ponasterone A binding conveyed by a fixed volume of a specific receptor preparation. Differences in the assay over time were corrected for empirically by re-assaying the reference receptor preparation with each new batch of [^3H]ponasterone A and calculating a batch-specific adjustment that was incorporated into the numerical factor used to convert filter-bound cpm into ligand binding units.” left out, “receptor. […]” for “receptor.”

[4] = target: ecdysone receptor recombinant ligand binding domains (DEF regions) heterodimer; assay: [3H]ponasterone A binding, Lucilia cuprina recombinant ligand binding region heterodimer; conditions: IMAC-purified Lucilia cuprina heterodimer; previously studied by this group
Method: as §1, with “Differences in the assay over time were corrected for empirically by re-assaying the reference receptor preparation with each new batch of [^3H]ponasterone A and calculating a batch-specific adjustment that was incorporated into the numerical factor used to convert filter-bound cpm into ligand binding units.” left out
Target sequence in this assay (O18531 374-757 limits assumed, one chain of several): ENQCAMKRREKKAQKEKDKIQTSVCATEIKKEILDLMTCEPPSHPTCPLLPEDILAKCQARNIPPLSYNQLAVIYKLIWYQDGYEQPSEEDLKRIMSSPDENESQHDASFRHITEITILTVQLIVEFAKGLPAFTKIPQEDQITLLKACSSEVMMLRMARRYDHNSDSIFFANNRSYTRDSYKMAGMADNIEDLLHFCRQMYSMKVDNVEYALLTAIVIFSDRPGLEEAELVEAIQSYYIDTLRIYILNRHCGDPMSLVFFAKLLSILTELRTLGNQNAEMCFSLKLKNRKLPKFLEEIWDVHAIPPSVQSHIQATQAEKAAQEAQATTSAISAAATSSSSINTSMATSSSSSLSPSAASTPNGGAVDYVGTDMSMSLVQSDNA

[5] = target: ecdysone receptor recombinant ligand binding domains (DEF regions) heterodimer; assay: [3H]ponasterone A binding, Bemisia tabaci recombinant ligand binding region heterodimer; conditions: IMAC-purified Bemisia tabaci heterodimer; previously studied by this group
Method: as §1, with “Differences in the assay over time were corrected for empirically by re-assaying the reference receptor preparation with each new batch of [^3H]ponasterone A and calculating a batch-specific adjustment that was incorporated into the numerical factor used to convert filter-bound cpm into ligand binding units.” left out, “receptor. […]” for “receptor.”

[6] = target: ecdysone receptor recombinant ligand binding domains (DEF regions) heterodimer; assay: [3H]ponasterone A binding, Helicoverpa armigera recombinant ligand binding region heterodimer; conditions: IMAC-purified Helicoverpa armigera heterodimer; previously studied by this group
Method: as §1, with “Differences in the assay over time were corrected for empirically by re-assaying the reference receptor preparation with each new batch of [^3H]ponasterone A and calculating a batch-specific adjustment that was incorporated into the numerical factor used to convert filter-bound cpm into ligand binding units.” left out, “receptor. […]” for “receptor.”

[7] = target: T1, FLAG-tagged NvUSPDEF (DEF domains / …); assay: IMAC co-purification of the heterodimer through the His6 tag on EcRDEF, from Sf9 cell extracts

Molecule | Ki (NvEcR11DEF-NvUSPDEF) [nM] | IC50 (NvEcR11DEF-NvUSPDEF) [nM] | Ki (NvEcR10DEF-NvUSPDEF) [nM] | IC50 (NvEcR10DEF-NvUSPDEF) [nM] | further results
2β, 3β, 14α, 20R,22R,25-hexahydroxy-5β-cholest-7-′ene-6-one [20-hydroxyecdysone] | 3800 | 4500 | 3600 | 4000 | –
CC(CO)CC[C@@H](O)[C@](C)(O)[C@H]1CC[C@@]2(O)C3=CC(=O)[C@@H]4C[C@@H](O)[C@@H](O)C[C@]4(C)[C@H]3CC[C@]12C (stereo partly drawn) [Inokosterone] | 6800 | 8000 | 6300 | 7500 | –
CC(C)CC[C@@H](O)[C@](C)(O)[C@H]1CC[C@@]2(O)C3=CC(=O)[C@]4(O)C[C@@H](O)[C@@H](O)C[C@]4(C)[C@H]3[C@H](O)C[C@]12C [Muristerone A] | 100 | 120 | 100 | 120 | –
CC(C)CC[C@@H](O)[C@](C)(O)[C@H]1CC[C@@]2(O)C3=CC(=O)[C@@H]4C[C@@H](O)[C@@H](O)C[C@]4(C)[C@H]3CC[C@]12C [Ponasterone A] | 200 | 280 | 200 | 260 | –
CC(C(O)CCC(C)(C)O)C1CCC2(O)C3=CC(=O)C4CC(O)C(O)CC4(C)C3CCC12C [α-Ecdysone, 2β, 3β, 14α,22R, 25-pentahydroxy-5β-cholest-7-ene-6-one] | 45200 | 53000 | 46200 | 55000 | –
[^3H]ponasterone A | – | – | – | – | Specific activity ([3H]ponasterone A binding units per μg protein) ([1]; IMAC-purified NvEcR11DEF-NvUSPDEF, 2.2 nM bindable [3H]ponasterone A): 7.3 U/μg; Kd ([1]; equilibrium binding of [3H]ponasterone A to IMAC-purified NvEcR11DEF-NvUSPDEF): 7.5 ± 0.8 nM; Kd [2]: 0.7 ± 0.1 nM; Specific activity ([3H]ponasterone A binding units per μg protein) [2]: 17.3-18.8 U/μg; Specific activity ([3H]ponasterone A binding units per μg protein) ([3]; IMAC-purified NvEcR10DEF-NvUSPDEF, 2.2 nM bindable [3H]ponasterone A): 5.0 U/μg; Kd ([3]; equilibrium binding of [3H]ponasterone A to IMAC-purified NvEcR10DEF-NvUSPDEF): 6.8 ± 0.8 nM; Kd [4]: 1 ± 0.1 nM; Specific activity ([3H]ponasterone A binding units per μg protein) [4]: 15.4-24.3 U/μg; Kd [5]: 1.2 ± 0.2 nM; Specific activity ([3H]ponasterone A binding units per μg protein) [5]: 11.3 U/μg; Kd [6]: 2.5 ± 0.1 nM
B1 | – | – | – | – | binding result [7]: binds
B2 | – | – | – | – | binding result [7]: binds
